Source: US9624241B2 (Incyte Corporation, priority 2013, dated 2017)
pIC50: −log10 of the molar value. Structures can show the parent of a compound that is named as a salt. Where two headings read alike, the source gives them in different places.

Legend:
[1] = target: BRD4-BD2 (Homo sapiens (Human), UniProt O60885); test: BRD4 AlphaScreen Assay (Example A2), BRD4-BD2; format: binding; details: read-out: BRD4 BD-2 enzyme IC50
Procedure: (§1) BRD4-BD1 and BRD4-BD2 assays were conducted in white 384-well polystyrene plate in a final volume of 40 μL for BD1 and 60 μL for BD2. Inhibitors were first serially diluted in DMSO and added to the plate wells before the addition of other reaction components. […] The assays were carried out at room temperature in the assay buffer (50 mM Tris-HCl, pH 7.5, 0.01% Tween-20, 0.01% BSA, 5 mM DTT), containing 50 nM Biotin-labeled tetra-acetylated histone H4 peptide (H4Ac4) and BRD4-BD1 or BRD4-BD2 protein at concentration less than 1 nM. […] After plate sealing, the plate was incubated in the dark at room temperature for 75 min. before reading on a PHERAstar FS plate reader (BMG Labtech). IC50 determination was performed by fitting the curve of percent control activity versus the log of the inhibitor concentration using the GraphPad Prism 5.0 software.

[2] = target: BRD4-BD1 (Homo sapiens (Human), UniProt O60885); test: BRD4 AlphaScreen Assay (Example A2), BRD4-BD1; format: binding
Procedure: as §1

[3] = Assay A2, AlphaScreen, BRD4-BD2
[4] = Assay A2, AlphaScreen, BRD4-BD1, read-out: BRD4 BD-1 enzyme IC50

SMILES: Cc1noc(C)c1-c1ccc2nc(N3CCCN(S(C)(=O)=O)CC3)n3c2c1OC[C@@H]3c1ccccn1 [Example 149, (4S)-7-(3,5-Dimethylisoxazol-4-yl)-2-[4-(methylsulfonyl)-1,4-diazepan-1-yl]-4-pyridin-2-yl-4,5-dihydroimidazo[1,5,4-de][1,4]benzoxazine]
- pIC50 [1, 3]: > 7.00
- pIC50 [2, 4]: > 7.00

SMILES: Cc1noc(C)c1-c1ccc2nc(C(=O)N3CCOCC3)n3c2c1OC[C@@H]3c1ccccn1 [Example 94, (4S)-7-(3,5-Dimethylisoxazol-4-yl)-2-(morpholin-4-ylcarbonyl)-4-pyridin-2-yl-4,5-dihydroimidazo[1,5,4-de][1,4]benzoxazine]
- pIC50 [1, 3]: > 7.00
- pIC50 [2, 4]: > 7.00

SMILES: Cc1noc(C)c1-c1cc(C2=CCN(C(=O)OC(C)(C)C)CC2)c2[nH]c(=O)n3c2c1OC[C@@H]3c1ccccn1 [Example 83, tert-butyl 4-[(4S)-7-(3,5-dimethylisoxazol-4-yl)-2-oxo-4-pyridin-2-yl-1,2,4,5-tetrahydroimidazo[1,5,4-de][1,4]benzoxazin-9-yl]-3,6-dihydropyridine-1(2H)-carboxylate 2,2,2-trifluoroacetate]
- pIC50 [1, 3]: > 7.00
- pIC50 [2, 4]: > 7.00

SMILES: Cc1noc(C)c1-c1ccc2nc(C3CCN(C(=O)C4CC4)C3)n3c2c1OC[C@@H]3c1ccccn1 (single isomer, unassigned; diastereomer 1) [Example 114A]
- pIC50 [1, 3]: > 7.00
- pIC50 [2, 4]: > 7.00

SMILES: CCOC(=O)/C=C/c1cc(-c2c(C)noc2C)c2c3c1[nH]c(=O)n3[C@@H](c1ccccn1)CO2 [Example 86, ethyl (2E)-3-[(4S)-7-(3,5-dimethylisoxazol-4-yl)-2-oxo-4-pyridin-2-yl-1,2,4,5-tetrahydroimidazo[1,5,4-de][1,4]benzoxazin-9-yl]acrylate 2,2,2-trifluoroacetate]
- pIC50 [1, 3]: > 7.00
- pIC50 [2, 4]: 6.00 to 7.00

SMILES: Cc1noc(C)c1-c1ccc2[nH]c(=O)n3c2c1CCC3c1ccccn1 (stereo not drawn) [Example 123, 7-(3,5-Dimethylisoxazol-4-yl)-4-pyridin-2-yl-5,6-dihydro-4H-imidazo[4,5,1-ij]quinolin-2(1H)-one trifluoroacetate]
- pIC50 [1, 3]: > 7.00
- pIC50 [2, 4]: 6.00 to 7.00

SMILES: Cc1noc(C)c1-c1cc(-c2cncnc2)c2[nH]c(=O)n3c2c1OC[C@@H]3c1ccccn1 [Example 84, (4S)-7-(3,5-dimethylisoxazol-4-yl)-4-pyridin-2-yl-9-pyrimidin-5-yl-4,5-dihydroimidazo[1,5,4-de][1,4]benzoxazin-2(1H)-one 2,2,2-trifluoroacetate]
- pIC50 [1, 3]: > 7.00
- pIC50 [2, 4]: 6.00 to 7.00

SMILES: CC(=O)N1CCC=C(c2nc3ccc(-c4c(C)noc4C)c4c3n2[C@@H](c2ccccn2)CO4)C1 [Example 116, (4S)-2-(1-acetyl-1,2,5,6-tetrahydropyridin-3-yl)-7-(3,5-dimethylisoxazol-4-yl)-4-pyridin-2-yl-4,5-dihydroimidazo[1,5,4-de][1,4]benzoxazine]
- pIC50 [1, 3]: > 7.00
- pIC50 [2, 4]: > 7.00

SMILES: Cc1noc(C)c1-c1ccc2nc(C3CCN(C(=O)OC(C)(C)C)CC3)n3c2c1OC[C@@H]3c1ccccn1 [Example 100, tert-Butyl 4-[(4S)-7-(3,5-dimethylisoxazol-4-yl)-4-pyridin-2-yl-4,5-dihydroimidazo[1,5,4-de][1,4]benzoxazin-2-yl]piperidine-1-carboxylate]
- pIC50 [1, 3]: > 7.00
- pIC50 [2, 4]: > 7.00

SMILES: Cc1noc(C)c1-c1ccc2[nH]c(=O)n3c2c1OCC3(C)c1ccccn1 (stereo not drawn) [Example 69, 7-(3,5-Dimethylisoxazol-4-yl)-4-methyl-4-pyridin-2-yl-4,5-dihydroimidazo[1,5,4-de][1,4]benzoxazin-2(1H)-one]
- pIC50 [1, 3]: > 7.00
- pIC50 [2, 4]: > 7.00

SMILES: Cc1noc(C)c1-c1cc(C(C)O)c2[nH]c(=O)n3c2c1OC[C@@H]3c1ccccn1 (single isomer, unassigned) [Example 144B]
- pIC50 [1, 3]: > 7.00
- pIC50 [2, 4]: 6.00 to 7.00

SMILES: Cc1noc(C)c1-c1ccc2nc(C3CCNC3)n3c2c1OC[C@@H]3c1ccccn1 (single isomer, unassigned; diastereomer 1) [Example 106A]
- pIC50 [1, 3]: > 7.00
- pIC50 [2, 4]: > 7.00

SMILES: Cc1noc(C)c1-c1cc(Cl)c2[nH]c(=O)n3c2c1OCC3c1ccccn1 (single isomer, unassigned) [Example 266A, 9-chloro-7-(3,5-dimethylisoxazol-4-yl)-4-pyridin-2-yl-4,5-dihydroimidazo[1,5,4-de][1,4]benzoxazin-2(1H)-one]
- pIC50 [1, 3]: > 7.00
- pIC50 [2, 4]: 6.00 to 7.00

SMILES: Cc1noc(C)c1-c1ccc2[nH]c(=O)n3c2c1OC(C(=O)NCCO)C3c1ccccc1 (single isomer, unassigned) [Example 48A, 7-(3,5-Dimethylisoxazol-4-yl)-N-(2-hydroxyethyl)-2-oxo-4-phenyl-1,2,4,5-tetrahydroimidazo[1,5,4-de][1,4]benzoxazine-5-carboxamide]
- pIC50 [1, 3]: > 7.00
- pIC50 [2, 4]: 6.00 to 7.00

SMILES: Cc1noc(CO)c1-c1ccc2[nH]c(=O)n3c2c1OCC3c1ccccn1 (racemic) [Example 124, 7-[5-(Hydroxymethyl)-3-methylisoxazol-4-yl]-4-pyridin-2-yl-4,5-dihydroimidazo[1,5,4-de][1,4]benzoxazin-2(1H)-one]
- pIC50 [1, 3]: 6.00 to 7.00
- pIC50 [2, 4]: 5.00 to 6.00

SMILES: COc1ccc(CNCc2cc(-c3c(C)noc3C)c3c4c2[nH]c(=O)n4C(c2ccccn2)CO3)cc1 (stereo not drawn) [Example 263, 7-(3,5-dimethylisoxazol-4-yl)-9-{[(4-methoxybenzyl)amino]methyl}-4-pyridin-2-yl-4,5-dihydroimidazo[1,5,4-de][1,4]benzoxazin-2(1H)-one]
- pIC50 [1, 3]: > 7.00
- pIC50 [2, 4]: 6.00 to 7.00

SMILES: Cc1noc(C)c1-c1ccc2nc(N3CC[C@@H](NC(=O)N4CCOCC4)C3)n3c2c1OC[C@@H]3c1ccccn1 [Example 153, N-{(3R)-1-[(4S)-7-(3,5-Dimethylisoxazol-4-yl)-4-pyridin-2-yl-4,5-dihydroimidazo[1,5,4-de][1,4]benzoxazin-2-yl]pyrrolidin-3-yl}morpholine-4-carboxamide]
- pIC50 [1, 3]: > 7.00
- pIC50 [2, 4]: > 7.00

SMILES: Cc1noc(C)c1-c1ccc2[nH]c(=O)n3c2c1OCC3(C(N)=O)c1ccccn1 (stereo not drawn) [Example 74, 7-(3,5-Dimethylisoxazol-4-yl)-2-oxo-4-pyridin-2-yl-1,2,4,5-tetrahydroimidazo[1,5,4-de][1,4]benzoxazine-4-carboxamide 2,2,2-trifluoroacetate]
- pIC50 [1, 3]: > 7.00
- pIC50 [2, 4]: 6.00 to 7.00

SMILES: Cc1noc(C)c1-c1ccc2nc([C@@H](O)CO)n3c2c1OC[C@@H]3c1ccccn1 [Example 89, (1R)-1-[(4S)-7-(3,5-Dimethylisoxazol-4-yl)-4-pyridin-2-yl-4,5-dihydroimidazo[1,5,4-de][1,4]benzoxazin-2-yl]ethane-1,2-diol]
- pIC50 [1, 3]: > 7.00
- pIC50 [2, 4]: > 7.00

SMILES: CNC(=O)c1nc2ccc(-c3c(C)noc3C)c3c2n1[C@@H](c1ccccn1)CO3 [Example 95, (4S)-7-(3,5-Dimethylisoxazol-4-yl)-N-methyl-4-pyridin-2-yl-4,5-dihydroimidazo[1,5,4-de][1,4]benzoxazine-2-carboxamide]
- pIC50 [1, 3]: > 7.00
- pIC50 [2, 4]: > 7.00

SMILES: Cc1noc(C)c1-c1ccc2nc(C3CCN(C(=O)C4CC4)CC3)n3c2c1OC[C@@H]3c1ccccn1 [Example 111, (4S)-2-[1-(cyclopropylcarbonyl)piperidin-4-yl]-7-(3,5-dimethylisoxazol-4-yl)-4-pyridin-2-yl-4,5-dihydroimidazo[1,5,4-de][1,4]benzoxazine]
- pIC50 [1, 3]: > 7.00
- pIC50 [2, 4]: > 7.00

SMILES: Cc1noc(C)c1-c1cc(C2=CCNCC2)c2[nH]c(=O)n3c2c1OC[C@@H]3c1ccccn1 [Example 87, (4S)-7-(3,5-dimethylisoxazol-4-yl)-4-pyridin-2-yl-9-(1,2,3,6-tetrahydropyridin-4-yl)-4,5-dihydroimidazo[1,5,4-de][1,4]benzoxazin-2(1H)-one bis(2,2,2-trifluoroacetate)]
- pIC50 [1]: > 7.00
- pIC50 [2]: 6.00 to 7.00

SMILES: Cc1noc(C)c1-c1ccc2nc(C3=CCNC3)n3c2c1OC[C@@H]3c1ccccn1 [Example 105, (4S)-2-(2,5-dihydro-1H-pyrrol-3-yl)-7-(3,5-dimethylisoxazol-4-yl)-4-pyridin-2-yl-4,5-dihydroimidazo[1,5,4-de][1,4]benzoxazine]
- pIC50 [1, 3]: > 7.00
- pIC50 [2, 4]: > 7.00

SMILES: COn1c(=O)n2c3c(c(-c4c(C)noc4C)ccc31)CCC2c1ccccn1 (stereo not drawn) [Example 122, 7-(3,5-Dimethylisoxazol-4-yl)-1-methoxy-4-pyridin-2-yl-5,6-dihydro-4H-imidazo[4,5,1-ij]quinolin-2(1H)-one trifluoroacetate]
- pIC50 [1, 3]: > 7.00
- pIC50 [2, 4]: 6.00 to 7.00

SMILES: Cc1noc(C)c1-c1cc(-c2cn[nH]c2C)c2[nH]c(=O)n3c2c1OCC3c1ccccn1 (stereo not drawn) [Example 257, 7-(3,5-dimethylisoxazol-4-yl)-9-(3-methyl-1H-pyrazol-4-yl)-4-pyridin-2-yl-4,5-dihydroimidazo[1,5,4-de][1,4]benzoxazin-2(1H)-one]
- pIC50 [1, 3]: > 7.00
- pIC50 [2, 4]: 6.00 to 7.00

SMILES: Cc1noc(C)c1-c1cc(C)c2[nH]c(=O)n3c2c1OCC3c1ccccn1 (stereo not drawn) [Example 268, 7-(3,5-dimethylisoxazol-4-yl)-9-methyl-4-pyridin-2-yl-4,5-dihydroimidazo[1,5,4-de][1,4]benzoxazin-2(1H)-one]
- pIC50 [1, 3]: 6.00 to 7.00
- pIC50 [2, 4]: 5.00 to 6.00

SMILES: Cc1noc(C)c1-c1ccc2[nH]c(=O)n3c2c1OCC3c1cccnc1C#N (racemic) [Example 126, 3-[7-(3,5-Dimethylisoxazol-4-yl)-2-oxo-1,2,4,5-tetrahydroimidazo[1,5,4-de][1,4]benzoxazin-4-yl]pyridine-2-carbonitrile]
- pIC50 [1, 3]: > 7.00
- pIC50 [2, 4]: 6.00 to 7.00
